Results on eleven compounds are retold here after US20230257376A1, “ROCK INHIBITOR, AND PREPARATION METHOD THEREFOR AND USE THEREOF” (WUHAN LL SCIENCE AND TECHNOLOGY DEVELOPMENT CO., LTD., priority 2020, published 2023).

The nature of data set [1]: In vitro metabolic stability, rat liver microsome incubation. It counts as in vitro ADME. Particulars: liver microsomes, 1 mg/mL protein, 37° C., read-out: T1/2 in rat liver microsome. The procedure:
(§1) The in vitro metabolic stability of the compounds disclosed herein was determined through incubation of liver microsomes of various species. A proper amount of test compound was added into a liver microsome reaction system (1 mg/mL liver microsome protein, 25 U/mL glucose-6 phosphate dehydrogenase, 1 mM NADP, 6 mM D-glucose 6-phosphate and 5 mM MgCl2), and then the mixture was incubated in a water bath kettle at 37° C. to start reaction. At each time point, 100 μL of the reaction liquid was added into a centrifuge tube containing 400 μL of internal standard working solution (containing a 200 ng/mL solution of dexamethasone, diclofenac, tolbutamide and labetalol in acetonitrile) precooled at 0° C. so as to stop the reaction, and the mixture was then centrifuged at 10,000 g for 10 min at 4° C. The supernatant was collected for LC-MS assay so as to obtain the values of in vitro metabolic half-life of the test compounds in liver microsomes of various species.

In data set [2] the target is T1, ROCK1 kinase (Homo sapiens, UniProt Q13464).
T1 construct: purchased Invitrogen
Briefly: In vitro evaluation of ROCK1 kinase selectivity (HTRF KinEASE-STK time-resolved fluorometric assay). Conditions: ROCK1 kinase 0.4 ng/μL, ATP 3.53 μM. It counts as biochemical. The procedure: ROCK1 activity was detected using a 96-well (Cisbio) time-resolved fluorometric assay. The assay for ROCK1 was performed in the following assay buffer: 5 mM MgCl2 (Sigma), 1 mM DTT (Sigma) and 1× kinase buffer. The kinase buffer was used for dilution. 7.5 μL of ROCK1 kinase (Invitrogen) was added to a 96-well microplate to reach a final concentration of 0.4 ng/μL, and then 0.25 μL of test compound (DMSO content: 1%) was added. The mixture was incubated at room temperature for 0.5 h. To start the reaction, the kinase buffer was also used to mix ATP (Aladdin) and the substrate STK-substrate 2-biotin. 7.5 μL of the mixed solution was added to the microplate to reach final concentrations of 3.53 μM and 1 μM. The resulting mixture was incubated at room temperature for 2 h. 5 mL of detection buffer was mixed with STK antibody-Cryptate, and then an appropriate volume of the mixture was mixed with an equal volume of streptavidin-XL665. 10 μL of the resulting mixture was added to stop the reaction. After further incubation for about 1 h, the microplate was read on a Molecular Devices SpectraMax i3x multifunctional microplate reader. The kinase buffer, the STK-substrate 2-biotin, the detection buffer, the STK antibody-Cryptate, and the streptavidin-XL665 were all from HTRF KinEASE-STK kit (Cisbio, 1000 tests, 61GSTXLA).
For orientation: In TR-FRET formats the signal depends on donor and acceptor labels being close together.

Data set [3] in a line: In vitro cytotoxicity assay in HepG2 cells using the CCK-8 method. The data set is classed as cell-based. Particulars: human. The procedure: In vitro cytotoxicity assay for the compounds disclosed herein was performed in HepG2 cells using the CCK-8 method. HepG2 cells (Beina Bio) in the logarithmic growth phase were collected, the concentration of cell suspension was adjusted, and then the cells were plated on a 96-well cell culture plate at 50,000 cells/well. The cells were then incubated overnight in a cell incubator (5%, 37° C.), and after 80-90% cell confluence was achieved, test compound at each concentration gradient or vehicle (DMSO) was added after medium change. The resulting mixture was incubated in the cell incubator (5%, 37° C.) for 48 h. After the treatment, the medium in the plate was discarded. The plate was washed twice with PBS, added with CCK-8 working solution (Beyotime) at 100 μL per well, and then incubated at 37° C. for 1.5 h in the dark. Absorbance at OD450 nm mil was measured for each well on a microplate reader, and CC50 value of each compound was analyzed and calculated.
On the technique in general: Tetrazolium assays rely on reduction of a dye to a coloured formazan, in cell work by metabolically active cells.

Data set [4] in a line: In vitro metabolic stability, human liver microsome incubation. It counts as in vitro ADME. Conditions: liver microsomes, 1 mg/mL protein, 37° C., read-out: T1/2 in human liver microsome. The procedure:
as §1
(In general: Liver microsomes are a subcellular fraction often used to study metabolism.)

Data set [5] deals with T2, ROCK2 kinase (Homo sapiens, UniProt O75116).
T2 construct: purchased Invitrogen PV3759
Briefly: In vitro evaluation of ROCK2 kinase activity (HTRF KinEASE-STK time-resolved fluorometric assay). Particulars: ROCK2 kinase 0.4 ng/μL, ATP 6.739 μM. The data set is classed as biochemical. The procedure:
ROCK2 activity screening. ROCK2 activity was detected using a 96-well (Cisbio) time-resolved fluorometric assay. The assay for ROCK2 was performed in the following assay buffer: 5 mM MgCl2 (Sigma), 1 mM DTT (Sigma) and 1× kinase buffer. The kinase buffer was used for dilution. 7.5 μL of ROCK2 kinase (Invitrogen, PV3759) was added to a 96-well microplate to reach a final concentration of 0.4 ng/μL, and then 0.25 μL of test compound (DMSO content: 1% (volume fraction)) was added. The mixture was incubated at room temperature for 0.5 h. To start the reaction, the kinase buffer was used to mix ATP (Aladdin) and the substrate STK-substrate 2-biotin. 7.5 μL of the mixed solution was added to the microplate to reach final concentrations of 6.739 μM and 1 μM. The resulting mixture was incubated at room temperature for 2 h. 5 mL of detection buffer was mixed with STK antibody-Cryptate, and then an appropriate volume of the mixture was mixed with an equal volume of streptavidin-XL665. 10 μL of the resulting mixture was added to the microplate to stop the reaction. After further incubation for about 1 h, the microplate was read on a Molecular Devices SpectraMax i3x multifunctional microplate reader. The kinase buffer, the STK-substrate 2-biotin, the detection buffer, the STK antibody-Cryptate, and the streptavidin-XL665 were all from HTRF KinEASE-STK kit (Cisbio, 1000 tests, 61GSTXLA).

Data set [6] can be described thus: In vitro metabolic stability, guinea pig liver microsome incubation. The data set is classed as in vitro ADME. Conditions: liver microsomes, 1 mg/mL protein, 37° C., read-out: T1/2 in guinea pig liver microsome. The procedure:
as §1

Data set [7] in a line: In vivo pharmacokinetic study in mice. Conditions: mouse, plasma; for AUC(0-t) / Cmax: 1 mg/kg. An excerpt: […] After administration, plasma of mice was collected at specific time points, and the concentration of the compound in the plasma was detected by LC-MS/MS (AB SCIEX Qtrap4500). The PK parameters of the compounds were statistically analyzed and calculated (WinNonlin V5.2, Pharsight) to show the pharmacokinetic properties of the compounds disclosed herein in mice.

SMILES strings stand for the structures.

T1 sequence (Q13464 whole entry): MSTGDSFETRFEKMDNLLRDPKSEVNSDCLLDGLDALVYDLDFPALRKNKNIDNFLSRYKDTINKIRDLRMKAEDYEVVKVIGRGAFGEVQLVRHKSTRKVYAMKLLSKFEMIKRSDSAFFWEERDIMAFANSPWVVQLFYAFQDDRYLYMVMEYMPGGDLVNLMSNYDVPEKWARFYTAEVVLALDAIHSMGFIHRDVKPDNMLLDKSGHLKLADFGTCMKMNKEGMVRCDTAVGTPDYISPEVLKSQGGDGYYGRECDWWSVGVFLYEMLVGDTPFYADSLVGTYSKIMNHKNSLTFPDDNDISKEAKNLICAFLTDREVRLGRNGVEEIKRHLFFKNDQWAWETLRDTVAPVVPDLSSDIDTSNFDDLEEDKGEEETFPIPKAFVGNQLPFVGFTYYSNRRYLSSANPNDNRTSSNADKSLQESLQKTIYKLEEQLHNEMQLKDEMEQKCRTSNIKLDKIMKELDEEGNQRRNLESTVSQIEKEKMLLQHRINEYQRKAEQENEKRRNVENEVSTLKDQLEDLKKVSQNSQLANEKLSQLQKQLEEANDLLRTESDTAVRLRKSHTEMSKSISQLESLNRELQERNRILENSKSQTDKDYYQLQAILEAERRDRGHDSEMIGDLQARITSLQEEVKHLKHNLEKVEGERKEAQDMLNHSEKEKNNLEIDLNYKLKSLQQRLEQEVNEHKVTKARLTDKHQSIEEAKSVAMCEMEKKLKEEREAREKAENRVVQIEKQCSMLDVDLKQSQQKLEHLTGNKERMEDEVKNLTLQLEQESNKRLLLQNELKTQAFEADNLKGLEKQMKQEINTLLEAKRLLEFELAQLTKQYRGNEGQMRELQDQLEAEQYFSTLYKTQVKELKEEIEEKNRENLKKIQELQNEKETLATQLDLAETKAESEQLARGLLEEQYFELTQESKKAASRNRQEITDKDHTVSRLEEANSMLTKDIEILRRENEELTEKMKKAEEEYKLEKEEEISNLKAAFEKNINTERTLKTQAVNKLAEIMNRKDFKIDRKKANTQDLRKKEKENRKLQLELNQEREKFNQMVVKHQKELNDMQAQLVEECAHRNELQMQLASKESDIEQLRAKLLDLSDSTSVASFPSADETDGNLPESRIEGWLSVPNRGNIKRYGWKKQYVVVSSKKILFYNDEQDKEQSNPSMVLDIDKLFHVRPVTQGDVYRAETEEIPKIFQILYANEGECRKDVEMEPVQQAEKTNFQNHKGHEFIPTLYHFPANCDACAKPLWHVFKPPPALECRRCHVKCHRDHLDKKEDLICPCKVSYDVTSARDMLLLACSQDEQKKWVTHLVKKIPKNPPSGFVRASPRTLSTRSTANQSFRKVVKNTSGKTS
T2 sequence (O75116 whole entry): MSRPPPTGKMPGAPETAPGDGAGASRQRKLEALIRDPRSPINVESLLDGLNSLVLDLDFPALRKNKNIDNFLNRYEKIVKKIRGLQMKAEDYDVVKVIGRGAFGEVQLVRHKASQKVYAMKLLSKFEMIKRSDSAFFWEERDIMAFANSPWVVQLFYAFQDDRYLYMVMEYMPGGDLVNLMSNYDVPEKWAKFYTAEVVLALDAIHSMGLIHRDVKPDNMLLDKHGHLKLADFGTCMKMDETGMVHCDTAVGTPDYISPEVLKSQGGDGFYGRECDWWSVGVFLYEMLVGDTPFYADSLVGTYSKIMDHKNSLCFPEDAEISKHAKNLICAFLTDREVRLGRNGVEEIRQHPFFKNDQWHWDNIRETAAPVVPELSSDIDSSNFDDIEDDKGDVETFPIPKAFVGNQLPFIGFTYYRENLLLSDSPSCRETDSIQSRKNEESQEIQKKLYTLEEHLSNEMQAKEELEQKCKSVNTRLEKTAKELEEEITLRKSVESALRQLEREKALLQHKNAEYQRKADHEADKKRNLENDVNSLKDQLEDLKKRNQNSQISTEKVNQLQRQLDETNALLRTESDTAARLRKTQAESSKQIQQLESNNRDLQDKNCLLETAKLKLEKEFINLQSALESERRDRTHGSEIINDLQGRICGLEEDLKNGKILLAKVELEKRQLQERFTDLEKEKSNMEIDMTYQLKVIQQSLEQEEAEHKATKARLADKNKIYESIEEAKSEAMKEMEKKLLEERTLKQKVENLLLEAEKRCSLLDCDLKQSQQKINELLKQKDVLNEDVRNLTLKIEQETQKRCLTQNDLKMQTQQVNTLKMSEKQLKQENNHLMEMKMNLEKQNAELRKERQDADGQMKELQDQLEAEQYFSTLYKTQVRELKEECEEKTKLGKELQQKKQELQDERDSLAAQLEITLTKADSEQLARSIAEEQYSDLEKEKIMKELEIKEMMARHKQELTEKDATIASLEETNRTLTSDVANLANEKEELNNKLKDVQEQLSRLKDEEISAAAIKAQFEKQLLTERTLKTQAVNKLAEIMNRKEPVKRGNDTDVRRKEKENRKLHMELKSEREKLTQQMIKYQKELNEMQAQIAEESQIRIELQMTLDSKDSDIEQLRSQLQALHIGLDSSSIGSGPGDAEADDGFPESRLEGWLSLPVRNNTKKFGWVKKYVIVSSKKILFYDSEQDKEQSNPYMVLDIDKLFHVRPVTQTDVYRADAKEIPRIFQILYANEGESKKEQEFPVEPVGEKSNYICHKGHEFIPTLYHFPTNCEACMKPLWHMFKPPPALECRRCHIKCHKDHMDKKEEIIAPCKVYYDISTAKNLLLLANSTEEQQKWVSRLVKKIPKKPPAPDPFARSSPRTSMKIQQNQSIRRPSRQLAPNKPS

As a reminder, the IC50 is the concentration that inhibits the measured activity by half. Broadly, the CC50 is the concentration giving 50% cytotoxicity. A higher CC50 goes with lower toxicity to the cells. In the case of `COc1cnc(N2CCc3cc(C(=O)N4CC(F)(F)C4)n(C)c3C2)nc1Nc1ccc(-c2cn[nH]c2)cc1` [Compound L026, (6-(4-((4-(1H-pyrazol-4-yl)phenyl)amino)-5-methoxypyrimidin-2-yl)-1-methyl-4,5,6,7-tetrahydro-1H-pyrrolo[2,3-c]pyridin-2-yl)(3,3-difluoroazetidin-1-yl)methanone], the results for the half-life in data set [1], in data set [4] and in data set [6] were 61.2 min, 237 min and 28.4 min, respectively. For the same compound, the IC50 in data set [2] was > 4.5 µM; in data set [5], ≤ 50 nM. Moreover, the CC50 at 48 h in data set [3] is > 100 µM.
As for `Cn1c(C(=O)OCC(F)(F)F)cc2c1CN(c1nccc(Nc3ccc(-c4cn[nH]c4)cc3)n1)CC2` [Compound L032, 2,2,2-trifluoroethyl 6-(4-((4-(1H-pyrazol-4-yl)phenyl)amino)pyrimidin-2-yl)-1-methyl-4,5,6,7-tetrahydro-1H-pyrrolo[2,3-c]pyridine-2-carboxylate], the figures for the half-life in data set [1], in data set [4] and in data set [6] were 42.5 min, 81 min and 33.8 min, respectively. The IC50 is > 4.5 µM in data set [2] and 50 to 500 nM in data set [5]. Further, the CC50 at 48 h in data set [3] worked out at 28.4 µM.
For the compound `Cn1c(C(=O)N2CC(C(F)(F)F)C2)cc2c1CN(c1nccc(Nc3ccc(-c4cn[nH]c4)cc3)n1)CC2` [Compound L033], the figures for the half-life in data set [1], in data set [4] and in data set [6] were 68.3 min, 93.2 min and 50.2 min, respectively. Further, the IC50 was > 4.5 µM in data set [2] and ≤ 50 nM in data set [5]. The CC50 at 48 h in data set [3] was > 100 µM.
Take `Cn1c(C(=O)N2CC(F)(F)C2)cc2c1CN(c1nncc(Nc3ccc(-c4cn[nH]c4)cc3)n1)CC2` [Compound L037, (6-(5-((4-(1H-pyrazol-4-yl)phenyl)amino)-1,2,4-triazin-3-yl)-1-methyl-4,5,6,7-tetrahydro-1H-pyrrolo(2,3-c)pyridin-2-yl)(3,3-difluoroazetidin-1-yl)methanone]: the half-life is 33.2 min in data set [1], 157 min in data set [4] and 60 min in data set [6]. In addition, the figures for the IC50 in data set [2] and in data set [5] were > 4.5 µM and ≤ 50 nM, respectively. In addition, in data set [3], the 50% cytotoxic concentration (CC50) at 48 h was > 100 µM.
For `Cn1c(C(=O)N2CC(F)(F)C2)cc2c1CN(c1nc(C#N)cc(Nc3ccc(-c4cn[nH]c4)cc3)n1)CC2` [Compound L042], the half-life stood at 345 min in data set [1], 438 min in data set [4] and 349 min in data set [6]. Moreover, the half-maximal inhibitory concentration (IC50) in data set [2] is > 4.5 µM; in data set [5] it was 50 to 500 nM. Also, the CC50 at 48 h in data set [3] turned out to be 27.9 µM.
For the compound `COc1nnc(N2CCc3cc(C(=O)N4CC(F)(F)C4)n(C)c3C2)nc1Nc1ccc(-c2cn[nH]c2)cc1` [Compound L043, (6-(5-((4-(1H-pyrazol-4-yl)phenyl)amino)-6-methoxy-1,2,4-triazin-3-yl)-1-methyl-4,5,6,7-tetrahydro-1H-pyrrolo[2,3-c]pyridin-2-yl)(3,3-difluoroazetidin-1-yl)methanone], the half-life in data set [1] was determined as 80.4 min; in data set [4] it was 112 min; in data set [6] it was 85.2 min. Moreover, the CC50 at 48 h in data set [3] was > 100 µM. The compound also displayed a half-inhibitory concentration (IC50) in data set [5] of 50 to 500 nM.
Usually bioavailability stands for dose-corrected exposure relative to a reference, in per cent. The term AUC(0-t) denotes exposure summed from dosing to a finite time, without extrapolation to infinity. The term Cmax denotes the maximum level reached in the sampled fluid or tissue. `Cc1nc(Nc2ccc(-c3cn[nH]c3)cc2)nc(N2CCc3cc(C(=O)N4CC(F)(F)C4)n(C)c3C2)n1` [Compound L044]: the half-life in data set [1] was 210 min; in data set [4] it was 439 min; in data set [6] it was 170 min. In addition, the bioavailability in data set [7] (1 mg/kg Po (fasted) vs 1 mg/kg Iv) was 54.8%. For the same compound, the AUC(0-t) in data set [7] (Iv) stood at 787 ng·h/mL; in data set [7] (Po (fasted)), 431 ng·h/mL. Moreover, the peak concentration (Cmax) in data set [7] (Iv) amounted to 594 ng/mL; in data set [7] (Po (fasted)), 109 ng/mL. Moreover, in data set [3], the midpoint of cytotoxicity, the CC50 at 48 h, lay at 58.1 µM. In data set [5], this compound displayed an IC50 of 50 to 500 nM.
As for `Cc1nc(Nc2ccc(-c3cn[nH]c3)cc2)nc(N2CCc3cc(C(=O)N4CC(C#N)C4)n(C)c3C2)n1` [Compound L050, 1-(6-(4-((4-(1H-pyrazol-4-yl)phenyl)amino)-6-methyl-1,3,5-triazin-2-yl)-1-methyl-4,5,6,7-tetrahydro-1H-pyrrolo[2,3-c]pyridin-2-carbonyl)azetidine-3-carbonitrile], the half-life in data set [1] was found to be 61.7 min; in data set [4] it was 259 min; in data set [6] it was 64.2 min. Further, the IC50 in data set [2] was > 4.5 µM; in data set [5], 50 to 500 nM. In data set [3], the 50% cytotoxic concentration (CC50) at 48 h is > 100 µM.
With `Cn1c(C(=O)N2CC(F)(F)C2)cc2c1CN(c1nc(CC#N)nc(Nc3ccc(-c4cn[nH]c4)cc3)n1)CC2` [Compound L051, 2-(4-((4-(1H-pyrazol-4-yl)phenyl)amino)-6-(2-(3,3-difluoroazetidin-1-carbonyl)-1-methyl-1,4,5,7-tetrahydro-6H-pyrrolo[2,3-c]pyridin-6-yl)-1,3,5-triazin-2-yl)acetonitrile], the half-life is 65 min in data set [1], 289 min in data set [4] and 50.4 min in data set [6]. Moreover, the IC50 in data set [2] was > 4.5 µM; in data set [5], 50 to 500 nM. Further, the CC50 at 48 h in data set [3] was > 100 µM.
As for `Cn1c(C(=O)N2CC(C#N)C2)cc2c1CN(c1ncc(F)c(Nc3ccc(-c4cn[nH]c4)cc3)n1)CC2` [Compound L056, 1-(6-(4-((4-(1H-pyrazol-4-yl)phenyl)amino)-5-fluoropyrimidin-2-yl)-1-methyl-4,5,6,7-tetrahydro-1H-pyrrolo[2,3-c]pyridin-2-carbonyl)azetidine-3-carbonitrile], the figures for the half-life in data set [1], in data set [4] and in data set [6] were 52.8 min, 60.4 min and 42.1 min, respectively. Moreover, the values for the half-inhibitory concentration (IC50) in data set [2] and in data set [5] were > 4.5 µM and ≤ 50 nM, respectively. Besides, in data set [3], the CC50 at 48 h was > 100 µM.
On to `Cn1c(C(=O)N2CC(F)(F)C2)cc2c1CN(c1nc(Nc3ccc(-c4cn[nH]c4)cc3)c3cccn3n1)CC2` [Compound L057, (6-(4-((4-(1H-pyrazol-4-yl)phenyl)amino)pyrrolo[2,1-f][1,2,4]triazin-2-yl)-1-methyl-4,5,6,7-tetrahydro-1H-pyrrolo[2,3-c]pyridin-2-yl)(3,3-difluoroazetidin-1-yl)methanone], for which the half-life is 45.5 min in data set [1], 190 min in data set [4] and 131 min in data set [6]. For the same compound, the IC50 in data set [2] was > 4.5 µM; in data set [5] it was 50 to 500 nM. In addition, the CC50 at 48 h in data set [3] is > 100 µM.
